{"source": "the NIST ThermoML archive (doi:10.1007/s10765-012-1371-1)", "key": {"[1]": {"experiment": "xn = mol fraction of the nth substance listed", "conditions": "101 kPa, Liquid"}, "[2]": {"conditions": "101 kPa, Liquid"}}, "note": "± gives the expanded uncertainty stated by the source.", "data": [{"molecule": "CC(C)CCl", "note": "[1-chloro-2-methylpropane] + CCCCOCC", "values": [{"measurement": "viscosity", "setting": "[1]; 283.15 K, x1 = 1", "result": "0.5155 ± 0.0096", "unit": "mPa·s"}, {"measurement": "viscosity", "setting": "[1]; 288.15 K, x1 = 1", "result": "0.4833 ± 0.0092", "unit": "mPa·s"}, {"measurement": "viscosity", "setting": "[1]; 293.15 K, x1 = 1", "result": "0.454 ± 0.0087", "unit": "mPa·s"}, {"measurement": "viscosity", "setting": "[1]; 298.15 K, x1 = 1", "result": "0.4296 ± 0.0083", "unit": "mPa·s"}, {"measurement": "viscosity", "setting": "[1]; 303.15 K, x1 = 1", "result": "0.4112 ± 0.008", "unit": "mPa·s"}, {"measurement": "viscosity", "setting": "[1]; 308.15 K, x1 = 1", "result": "0.3921 ± 0.0078", "unit": "mPa·s"}, {"measurement": "viscosity", "setting": "[1]; 313.15 K, x1 = 1", "result": "0.3726 ± 0.0075", "unit": "mPa·s"}]}, {"molecule": "COC(C)(C)C", "note": "[2-methoxy-2-methylpropane] + CCCCCl", "values": [{"measurement": "viscosity", "setting": "[1]; 283.15 K, x2 = 0", "result": "0.3897 ± 0.0078", "unit": "mPa·s"}, {"measurement": "viscosity", "setting": "[1]; 288.15 K, x2 = 0", "result": "0.364 ± 0.0074", "unit": "mPa·s"}, {"measurement": "viscosity", "setting": "[1]; 293.15 K, x2 = 0", "result": "0.3482 ± 0.0071", "unit": "mPa·s"}, {"measurement": "viscosity", "setting": "[1]; 298.15 K, x2 = 0", "result": "0.3327 ± 0.0069", "unit": "mPa·s"}, {"measurement": "viscosity", "setting": "[1]; 303.15 K, x2 = 0", "result": "0.3152 ± 0.0066", "unit": "mPa·s"}, {"measurement": "viscosity", "setting": "[1]; 308.15 K, x2 = 0", "result": "0.2994 ± 0.0064", "unit": "mPa·s"}, {"measurement": "viscosity", "setting": "[1]; 313.15 K, x2 = 0", "result": "0.2846 ± 0.0062", "unit": "mPa·s"}]}, {"molecule": "CCCCCl", "note": "[1-chlorobutane] + CCCCOCC", "values": [{"measurement": "viscosity", "setting": "[1]; 283.15 K, x1 = 1", "result": "0.4993 ± 0.0094", "unit": "mPa·s"}, {"measurement": "viscosity", "setting": "[1]; 288.15 K, x1 = 1", "result": "0.4701 ± 0.009", "unit": "mPa·s"}, {"measurement": "viscosity", "setting": "[1]; 293.15 K, x1 = 1", "result": "0.4433 ± 0.0085", "unit": "mPa·s"}, {"measurement": "viscosity", "setting": "[1]; 298.15 K, x1 = 1", "result": "0.4214 ± 0.0082", "unit": "mPa·s"}, {"measurement": "viscosity", "setting": "[1]; 303.15 K, x1 = 1", "result": "0.405 ± 0.0079", "unit": "mPa·s"}, {"measurement": "viscosity", "setting": "[1]; 308.15 K, x1 = 1", "result": "0.3885 ± 0.0077", "unit": "mPa·s"}, {"measurement": "viscosity", "setting": "[1]; 313.15 K, x1 = 1", "result": "0.3642 ± 0.0074", "unit": "mPa·s"}]}, {"molecule": "COC(C)(C)C", "note": "[2-methoxy-2-methylpropane]", "values": [{"measurement": "viscosity", "setting": "[2]; 283.15 K", "result": "0.3897 ± 0.0078", "unit": "mPa·s"}, {"measurement": "viscosity", "setting": "[2]; 288.15 K", "result": "0.364 ± 0.0074", "unit": "mPa·s"}, {"measurement": "viscosity", "setting": "[2]; 293.15 K", "result": "0.3482 ± 0.0071", "unit": "mPa·s"}, {"measurement": "viscosity", "setting": "[2]; 298.15 K", "result": "0.3327 ± 0.0069", "unit": "mPa·s"}, {"measurement": "viscosity", "setting": "[2]; 303.15 K", "result": "0.3152 ± 0.0066", "unit": "mPa·s"}, {"measurement": "viscosity", "setting": "[2]; 308.15 K", "result": "0.2994 ± 0.0064", "unit": "mPa·s"}, {"measurement": "viscosity", "setting": "[2]; 313.15 K", "result": "0.2846 ± 0.0062", "unit": "mPa·s"}]}, {"molecule": "CCCCOCC", "note": "[butyl ethyl ether]", "values": [{"measurement": "viscosity", "setting": "[2]; 283.15 K", "result": "0.4796 ± 0.0091", "unit": "mPa·s"}, {"measurement": "viscosity", "setting": "[2]; 288.15 K", "result": "0.4509 ± 0.0087", "unit": "mPa·s"}, {"measurement": "viscosity", "setting": "[2]; 293.15 K", "result": "0.4242 ± 0.0083", "unit": "mPa·s"}, {"measurement": "viscosity", "setting": "[2]; 298.15 K", "result": "0.399 ± 0.0079", "unit": "mPa·s"}, {"measurement": "viscosity", "setting": "[2]; 303.15 K", "result": "0.3756 ± 0.0075", "unit": "mPa·s"}, {"measurement": "viscosity", "setting": "[2]; 308.15 K", "result": "0.356 ± 0.0072", "unit": "mPa·s"}, {"measurement": "viscosity", "setting": "[2]; 313.15 K", "result": "0.3416 ± 0.007", "unit": "mPa·s"}]}, {"molecule": "CCC(C)Cl", "note": "(configuration not stated) [2-chlorobutane]", "values": [{"measurement": "viscosity", "setting": "[2]; 283.15 K", "result": "0.4631 ± 0.0088", "unit": "mPa·s"}, {"measurement": "viscosity", "setting": "[2]; 288.15 K", "result": "0.4365 ± 0.0084", "unit": "mPa·s"}, {"measurement": "viscosity", "setting": "[2]; 293.15 K", "result": "0.4167 ± 0.0081", "unit": "mPa·s"}, {"measurement": "viscosity", "setting": "[2]; 298.15 K", "result": "0.3993 ± 0.0079", "unit": "mPa·s"}, {"measurement": "viscosity", "setting": "[2]; 303.15 K", "result": "0.38 ± 0.0076", "unit": "mPa·s"}, {"measurement": "viscosity", "setting": "[2]; 308.15 K", "result": "0.3615 ± 0.0073", "unit": "mPa·s"}, {"measurement": "viscosity", "setting": "[2]; 313.15 K", "result": "0.3443 ± 0.0071", "unit": "mPa·s"}]}, {"molecule": "CC(C)CCl", "note": "[1-chloro-2-methylpropane]", "values": [{"measurement": "viscosity", "setting": "[2]; 283.15 K", "result": "0.5155 ± 0.0096", "unit": "mPa·s"}, {"measurement": "viscosity", "setting": "[2]; 288.15 K", "result": "0.4833 ± 0.0092", "unit": "mPa·s"}, {"measurement": "viscosity", "setting": "[2]; 293.15 K", "result": "0.454 ± 0.0087", "unit": "mPa·s"}, {"measurement": "viscosity", "setting": "[2]; 298.15 K", "result": "0.4296 ± 0.0083", "unit": "mPa·s"}, {"measurement": "viscosity", "setting": "[2]; 303.15 K", "result": "0.4112 ± 0.008", "unit": "mPa·s"}, {"measurement": "viscosity", "setting": "[2]; 308.15 K", "result": "0.3921 ± 0.0078", "unit": "mPa·s"}, {"measurement": "viscosity", "setting": "[2]; 313.15 K", "result": "0.3726 ± 0.0075", "unit": "mPa·s"}]}, {"molecule": "COC(C)(C)C", "note": "[2-methoxy-2-methylpropane] + CCC(C)Cl", "values": [{"measurement": "viscosity", "setting": "[1]; 283.15 K, x2 = 0", "result": "0.3897 ± 0.0078", "unit": "mPa·s"}, {"measurement": "viscosity", "setting": "[1]; 288.15 K, x2 = 0", "result": "0.364 ± 0.0074", "unit": "mPa·s"}, {"measurement": "viscosity", "setting": "[1]; 293.15 K, x2 = 0", "result": "0.3482 ± 0.0071", "unit": "mPa·s"}, {"measurement": "viscosity", "setting": "[1]; 298.15 K, x2 = 0", "result": "0.3327 ± 0.0069", "unit": "mPa·s"}, {"measurement": "viscosity", "setting": "[1]; 303.15 K, x2 = 0", "result": "0.3152 ± 0.0066", "unit": "mPa·s"}, {"measurement": "viscosity", "setting": "[1]; 308.15 K, x2 = 0", "result": "0.2994 ± 0.0064", "unit": "mPa·s"}, {"measurement": "viscosity", "setting": "[1]; 313.15 K, x2 = 0", "result": "0.2846 ± 0.0062", "unit": "mPa·s"}]}, {"molecule": "COC(C)(C)C", "note": "[2-methoxy-2-methylpropane] + CC(C)CCl", "values": [{"measurement": "viscosity", "setting": "[1]; 283.15 K, x2 = 0", "result": "0.3897 ± 0.0078", "unit": "mPa·s"}, {"measurement": "viscosity", "setting": "[1]; 288.15 K, x2 = 0", "result": "0.364 ± 0.0074", "unit": "mPa·s"}, {"measurement": "viscosity", "setting": "[1]; 293.15 K, x2 = 0", "result": "0.3482 ± 0.0071", "unit": "mPa·s"}, {"measurement": "viscosity", "setting": "[1]; 298.15 K, x2 = 0", "result": "0.3327 ± 0.0069", "unit": "mPa·s"}, {"measurement": "viscosity", "setting": "[1]; 303.15 K, x2 = 0", "result": "0.3152 ± 0.0066", "unit": "mPa·s"}, {"measurement": "viscosity", "setting": "[1]; 308.15 K, x2 = 0", "result": "0.2994 ± 0.0064", "unit": "mPa·s"}, {"measurement": "viscosity", "setting": "[1]; 313.15 K, x2 = 0", "result": "0.2846 ± 0.0062", "unit": "mPa·s"}]}, {"molecule": "CCCCCl", "note": "[1-chlorobutane]", "values": [{"measurement": "viscosity", "setting": "[2]; 283.15 K", "result": "0.4993 ± 0.0094", "unit": "mPa·s"}, {"measurement": "viscosity", "setting": "[2]; 288.15 K", "result": "0.4701 ± 0.009", "unit": "mPa·s"}, {"measurement": "viscosity", "setting": "[2]; 293.15 K", "result": "0.4433 ± 0.0085", "unit": "mPa·s"}, {"measurement": "viscosity", "setting": "[2]; 298.15 K", "result": "0.4214 ± 0.0082", "unit": "mPa·s"}, {"measurement": "viscosity", "setting": "[2]; 303.15 K", "result": "0.405 ± 0.0079", "unit": "mPa·s"}, {"measurement": "viscosity", "setting": "[2]; 308.15 K", "result": "0.3885 ± 0.0077", "unit": "mPa·s"}, {"measurement": "viscosity", "setting": "[2]; 313.15 K", "result": "0.3642 ± 0.0074", "unit": "mPa·s"}]}, {"molecule": "CCC(C)Cl", "note": "(configuration not stated) [2-chlorobutane] + CCCCOCC", "values": [{"measurement": "viscosity", "setting": "[1]; 283.15 K, x1 = 1", "result": "0.4631 ± 0.0088", "unit": "mPa·s"}, {"measurement": "viscosity", "setting": "[1]; 288.15 K, x1 = 1", "result": "0.4365 ± 0.0084", "unit": "mPa·s"}, {"measurement": "viscosity", "setting": "[1]; 293.15 K, x1 = 1", "result": "0.4167 ± 0.0081", "unit": "mPa·s"}, {"measurement": "viscosity", "setting": "[1]; 298.15 K, x1 = 1", "result": "0.3993 ± 0.0079", "unit": "mPa·s"}, {"measurement": "viscosity", "setting": "[1]; 303.15 K, x1 = 1", "result": "0.38 ± 0.0076", "unit": "mPa·s"}, {"measurement": "viscosity", "setting": "[1]; 308.15 K, x1 = 1", "result": "0.3615 ± 0.0073", "unit": "mPa·s"}, {"measurement": "viscosity", "setting": "[1]; 313.15 K, x1 = 1", "result": "0.3443 ± 0.0071", "unit": "mPa·s"}]}]}
